Results published in US9034922B2, “Composition for maintaining function of platelets” (THE UNIVERSITY OF TOKYO, priority 2010, dated 2015).

How the values were obtained:
Type in all cases: biochemical
[1] = target: T1, Matrix metalloproteinase 17 (MMP-17) (Homo sapiens, UniProt Q9ULZ9); assay: Enzyme inhibition experiment, MMP-17; conditions: 3163 substrate, 25° C., 5 hours
T1 construct: purchased Calbiochem 475940
T1 sequence (Q9ULZ9 126-298 limits assumed): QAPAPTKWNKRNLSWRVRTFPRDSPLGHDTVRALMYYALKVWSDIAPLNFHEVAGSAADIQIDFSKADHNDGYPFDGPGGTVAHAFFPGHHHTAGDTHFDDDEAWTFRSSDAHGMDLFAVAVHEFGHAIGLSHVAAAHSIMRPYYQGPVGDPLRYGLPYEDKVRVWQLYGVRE
Method: Matrix metalloproteinase 17 (MMP-17) (manufactured by Calbiochem, product number: 475940)
3168 substrate (MOCAc-Arg-Pro-Lys-Pro-Val-Glu-Nva-Trp-Arg-Lys(Dnp)-NH2, manufactured by Peptide Institute, Inc.): excitation wavelength at 320 nm, emission wavelength at 405 nm, and 3163 substrate (MOCAc-Pro-Leu-Gly-Leu-A2pr(Dnp)-Ala-Arg-NH2, manufactured by Peptide Institute, Inc.): excitation wavelength at 320 nm, emission wavelength at 405 nm.
(§1) The enzyme reaction was carried out using the enzymes and substrates. Specifically, if necessary, the enzyme was activated in advance with APMA (final concentration 1 mmol/L, p-aminophenylmercuric acetate, manufactured by Sigma-Aldrich Co., A9563) according to information from the manufacturer. Then, in a 96-well plate for fluorescence measurement, 90 μL of an enzyme solution prepared with Assay Buffer A (50 mmol/L Tris-HCl buffer (pH 7.5) containing 200 mmol/L sodium chloride, 5 mmol/L calcium chloride, 10 μmol/L zinc sulfate, and 2 mg/mL bovine serum albumin) was mixed with 90 μL of the substrate adjusted to be 20 μmol/L with Assay Buffer B (50 mmol/L Tris-HCl buffer (pH 7.5) containing 200 mmol/L sodium chloride, 5 mmol/L calcium chloride, 10 μmol/L zinc sulfate, and 0.05% PLURONIC F-68), and incubated for reaction at 25° C. or 37° C. for several hours. Moreover, the fluorescence intensities before and after the reaction were measured using a fluorometer to determine the enzyme activity. An inhibition rate was obtained based on the enzyme activities in the presence and absence of the test substances, and the 50% inhibitory concentration (IC50) was calculated.

[2] = target: T2, Matrix metalloproteinase 2 (MMP-2) (Homo sapiens, UniProt P08253); assay: Enzyme inhibition experiment, MMP-2; conditions: 3163 substrate, 37° C., 5 hours
T2 construct: purchased Calbiochem 444213
T2 sequence (P08253 110-660): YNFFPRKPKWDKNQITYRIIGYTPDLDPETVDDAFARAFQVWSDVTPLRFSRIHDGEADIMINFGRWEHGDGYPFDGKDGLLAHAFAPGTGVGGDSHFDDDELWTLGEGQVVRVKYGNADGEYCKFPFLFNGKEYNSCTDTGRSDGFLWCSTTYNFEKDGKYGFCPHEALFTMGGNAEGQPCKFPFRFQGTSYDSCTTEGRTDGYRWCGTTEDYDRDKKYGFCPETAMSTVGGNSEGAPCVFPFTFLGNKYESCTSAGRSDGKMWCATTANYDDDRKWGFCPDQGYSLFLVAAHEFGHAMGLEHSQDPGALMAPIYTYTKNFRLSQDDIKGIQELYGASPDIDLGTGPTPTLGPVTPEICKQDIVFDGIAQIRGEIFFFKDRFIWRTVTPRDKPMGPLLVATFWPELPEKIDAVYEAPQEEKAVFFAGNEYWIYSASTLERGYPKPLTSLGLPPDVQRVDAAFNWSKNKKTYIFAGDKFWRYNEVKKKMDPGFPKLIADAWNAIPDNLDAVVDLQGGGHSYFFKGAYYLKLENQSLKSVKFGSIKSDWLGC
Method: as §1, with “activity.” for “activity. An inhibition rate was obtained based on the enzyme activities in the presence and absence of the test substances, and the 50% inhibitory concentration (IC50) was calculated.”

[3] = target: T3, A disintegrin and metalloproteinase 10 (ADAM10) (Homo sapiens, UniProt O14672); assay: Enzyme inhibition experiment, ADAM10; conditions: degree somewhat low in comparison with ADAM17
T3 construct: purchased Funakoshi Co., Ltd. 936-AD-020
T3 sequence (O14672 214-672 limits assumed): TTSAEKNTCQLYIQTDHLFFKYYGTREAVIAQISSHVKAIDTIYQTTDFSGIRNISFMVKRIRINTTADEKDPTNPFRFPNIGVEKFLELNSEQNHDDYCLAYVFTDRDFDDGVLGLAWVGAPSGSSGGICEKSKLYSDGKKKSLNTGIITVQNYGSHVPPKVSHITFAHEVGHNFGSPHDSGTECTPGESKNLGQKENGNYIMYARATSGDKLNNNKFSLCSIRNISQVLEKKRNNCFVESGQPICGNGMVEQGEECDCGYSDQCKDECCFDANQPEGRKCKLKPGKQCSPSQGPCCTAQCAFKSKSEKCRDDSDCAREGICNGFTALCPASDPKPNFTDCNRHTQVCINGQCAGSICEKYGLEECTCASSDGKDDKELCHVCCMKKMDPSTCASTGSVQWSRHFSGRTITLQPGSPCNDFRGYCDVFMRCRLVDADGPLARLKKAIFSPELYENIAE
Method: A disintegrin and metalloproteinase 10 (ADAM10) (manufactured by Funakoshi Co., Ltd., product code: 936-AD-020) and
TACE substrate (the same as one used in Test Example 3): excitation wavelength at 355 nm, emission wavelength at 460 nm
as §1

[4] = target: T4, Matrix metalloproteinase 14 (MMP-14) (Homo sapiens, UniProt P50281); assay: Enzyme inhibition experiment, MMP-14; conditions: 444221 substrate, 37° C., 5 hours
T4 construct: purchased Calbiochem 475935
Method: Matrix metalloproteinase 14 (MMP-14) (manufactured by Calbiochem, product number: 475935)
444221 substrate (DNP-Pro-Cha-Gly-Cys(Me)-His-Ala-Lys(Nma)-NH2, custom synthesis): excitation wavelength at 355 nm, emission wavelength at 460 nm
as §1

[5] = target: T5, Matrix metalloproteinase 8 (MMP-8) (Homo sapiens, UniProt P22894); assay: Enzyme inhibition experiment, MMP-8; conditions: 3163 substrate, 37° C., 5 hours
T5 construct: purchased Calbiochem 444229
Method: as §1, with “activity.” for “activity. An inhibition rate was obtained based on the enzyme activities in the presence and absence of the test substances, and the 50% inhibitory concentration (IC50) was calculated.”

T5 sequence (P22894 101-467): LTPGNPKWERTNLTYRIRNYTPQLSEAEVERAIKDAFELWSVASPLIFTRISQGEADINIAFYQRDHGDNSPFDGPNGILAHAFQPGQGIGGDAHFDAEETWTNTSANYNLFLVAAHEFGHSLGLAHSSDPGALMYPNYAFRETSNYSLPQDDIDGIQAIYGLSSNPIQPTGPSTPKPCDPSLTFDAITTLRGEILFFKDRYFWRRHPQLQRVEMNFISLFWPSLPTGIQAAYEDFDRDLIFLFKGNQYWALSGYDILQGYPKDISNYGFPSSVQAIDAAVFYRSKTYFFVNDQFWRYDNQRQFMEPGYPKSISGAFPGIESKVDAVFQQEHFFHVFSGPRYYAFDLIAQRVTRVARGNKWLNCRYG

SMILES	IC50 [1]	IC50 [2]	suppression of ADAM10 (in words) [3]	IC50 [4]	IC50 [5]
CC#CCOc1ccc(S(=O)(=O)CC(c2ccc(CN(CC)CC)cc2)N(O)C=O)cc1 (stereo not shown) [Compound I-1, N-[2-(4-But-2-ynyloxybenzenesulfonyl)-1-(4-diethylaminomethylphenyl)ethyl]-N-hydroxyformamide]	2800 nM	150 nM	suppressed ADAM10	1000 nM	900 nM
CC#CCOc1ccc(S(=O)(=O)CC(c2ccc(CNS(C)(=O)=O)cc2)N(O)C=O)cc1 (stereo not shown) [Compound I-4, N-{4-[2-(4-But-2-ynyloxybenzenesulfonyl)-1-(formylhydroxyamino)ethyl]benzyl}methanesulfonamide]	3400 nM	290 nM	suppressed ADAM10	1400 nM	950 nM
